System: SUM149PT spheroids with HUVEC/MSC, viability
Experiment: Anticancer human tumor SUM149PT cell line growth inhibition [GQUAD];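 further: spheroids exposed to drugs for seven days before readout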;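 on viability, T/C: percent viability relative to DMSO vehicle control taken as 100%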
Details: for IC50: curve of first compound; for viability, T/C: stronger effect = lower value; active means viability on the fitted dose curve at most 10% of control; inactive means the rest
From the text: DNA G-quadruplex Stabilizer Agents in Combinations in Complex Spheroids
A high-throughput screen of multi-cell type tumor spheroids was designed to identify active combinations of DNA G-quadruplex stabilizer agents and targeted small molecules. Complex spheroids include a stromal component modeled by human endothelial cells (HUVEC) and fibroblasts modeled by human mesenchymal stem cells (MSCs). The concentration ranges selected for each drug and investigational agent were based upon clinically achievable concentrations if the clinical Cmax of the agent was known.
Compounds. The drugs and investigational agents: pidnarulex (CX-5461; NSC782164), APTO-253 (NSC789042), BRACO-19 (NSC847499), peposertib (NSC802822), ceralasertib (NSC780249), elimusertib (NSC800525), camonsertib (NSC841442), AZD-1390 (NSC803789), olaparib (NSC753686), talazoparib (NSC767125), ART-558 (NSC835418), sotorasib (NSC818433), MRTX-1133 (NSC836407), SN-38 (NSC673596), topotecan (NSC609699), etoposide (NSC141540), doxorubicin (NSC123127), gemcitabine (NSC613327), 5-fluorouracil (NSC19893), paclitaxel (NSC125973), vemurafenib (NSC761431), panobinostat (NSC761190), R-306465 (JNJ-16241199; NSC773264), adavosertib (NSC754352), TP-3654 (NSC805149), carboplatin (NSC241240), KSQ-4279 (NSC840948), and staurosporine (NSC755774) were obtained from the National Cancer Institute (NCI) Developmental Therapeutics Program Chemical Repository (34). The FDA-approved anticancer drug set is available from the NCI Developmental Therapeutics Program. […] The stock solutions were prepared in dimethyl sulfoxide (DMSO, Sigma-Aldrich, St. Louis, MO, cat. D2650) at 800-fold the tested concentration and stored at -70 degrees C prior to their use. All drugs and investigational agents were tested over a range starting from a high concentration at or near the clinical Cmax and decreasing in half-log increments. If the clinical Cmax for an agent had not been determined, the highest concentration tested was 10 microM.
2.3 Cell Culture. All cells were maintained in an incubator at 37 degrees C and 5% CO2 with 95% humidity. The PDC lines were cultured according to standard operating procedures established by the NCI PDMR. All PDCs were thawed and cultured in Matrigel-coated flasks prepared with a working solution of 1X Ham's F-12 nutrient mix, without supplementation (Invitrogen, cat. 11765054), 100 U/mL penicillin-streptomycin (Invitrogen, cat. 15140122), and 2.5% Matrigel (Corning Inc., cat. 354248) for the first three passages. The 857933-349-R-J2-PDC line was cultured in 6C/Colon 1B media, which includes advanced DMEM/F-12 (Thermo Fisher Scientific, cat. 12634028), 10 mM HEPES (Thermo Fisher Scientific, cat. 15630080), 1X GlutaMAX supplement (Thermo Fisher Scientific, cat. 35050061), 0.1 mg/mL primocin (InvivoGen, cat. ant-pm-2), 10% defined fetal bovine serum, heat inactivated (HyClone Laboratories Inc., cat. SH30070.03HI), 50% L-WRN conditioned media (ATCC, cat. CRL-3276), 1.25 mM N-Acetyl-L-cysteine (Sigma-Aldrich, cat. A9165), 10 mM nicotinamide (Sigma-Aldrich, cat. N0636), 1X B-27 supplement (Thermo Fisher Scientific, cat. 17504044), 1X N-2 supplement (Thermo Fisher Scientific, cat. 17502048), 10 microM Y-27632 dihydrochloride (Tocris Bioscience, cat. 1254), and 50 ng/mL human EGF recombinant protein (Thermo Fisher Scientific, cat. PHG0311). The 485176-168-R4-J1-PDC line was cultured in Panc media, which includes all 6C/Colon 1B media components plus 100 ng/mL human FGF-10 (Thermo Fisher Scientific, cat. 100-26), 500 nM SB-431542 (Selleckchem, cat. S1067), and gastrin (Tocris, cat. 3006).
[…]

[1] = second compound 0.0316 µM, first compound 0.0316 µM
[2] = second compound 0.0316 µM, first compound 0.316 µM
[3] = second compound 0.1 µM, first compound 0.0316 µM
[4] = second compound 0.1 µM, first compound 0.316 µM
[5] = second compound 0.316 µM, first compound 0.0316 µM
[6] = second compound 0.316 µM, first compound 0.316 µM
[7] = second compound 1 µM, first compound 0.0316 µM
[8] = second compound 1 µM, first compound 0.316 µM
[9] = second compound 3.16 µM, first compound 0.0316 µM
[10] = second compound 3.16 µM, first compound 0.316 µM
[11] = second compound 10 µM, first compound 0.0316 µM
[12] = second compound 10 µM, first compound 0.316 µM

CC(C)(O)C1CCC(Nc2ccc3ncc(-c4cccc(C(F)(F)F)c4)n3n2)CC1 (centres undefined) + CN(C)c1ccc(Nc2c3ccc(NC(=O)CCN4CCCC4)cc3nc3cc(NC(=O)CCN4CCCC4)ccc23)cc1
1250 nM: IC50 (second compound 3.16 µM)
1550 nM: IC50 (second compound 1 µM)
> 10000 nM: IC50 (second compound 0.0316 µM) | IC50 (second compound 0.1 µM)
1760 nM: IC50 (second compound 0.316 µM)
inactive: viability, T/C [1] 98.7% | viability, T/C (second compound 0.0316 µM, first compound 0.1 µM) 84.6% | viability, T/C [2] 75% | viability, T/C (second compound 0.0316 µM, first compound 1 µM) 61.5% | viability, T/C (second compound 0.0316 µM, first compound 3.16 µM) 53.6% | viability, T/C (second compound 0.0316 µM, first compound 10 µM) 54.2% | viability, T/C [3] 102% | viability, T/C (second compound 0.1 µM, first compound 0.1 µM) 92.8% | viability, T/C [4] 77.8% | viability, T/C (second compound 0.1 µM, first compound 1 µM) 58% | viability, T/C (second compound 0.1 µM, first compound 3.16 µM) 49.1% | viability, T/C (second compound 0.1 µM, first compound 10 µM) 54.3% | viability, T/C [5] 86.4% | viability, T/C (second compound 0.316 µM, first compound 0.1 µM) 89.2% | viability, T/C [6] 76.5% | viability, T/C (second compound 0.316 µM, first compound 1 µM) 52.8% | viability, T/C (second compound 0.316 µM, first compound 3.16 µM) 44.7% | viability, T/C (second compound 0.316 µM, first compound 10 µM) 50% | viability, T/C [7] 89.6% | viability, T/C (second compound 1 µM, first compound 0.1 µM) 82% | viability, T/C [8] 78.2% | viability, T/C (second compound 1 µM, first compound 1 µM) 57.3% | viability, T/C (second compound 1 µM, first compound 3.16 µM) 35.9% | viability, T/C (second compound 1 µM, first compound 10 µM) 42.2% | viability, T/C [9] 81.6% | viability, T/C (second compound 3.16 µM, first compound 0.1 µM) 78.6% | viability, T/C [10] 74.7% | viability, T/C (second compound 3.16 µM, first compound 1 µM) 54.1% | viability, T/C (second compound 3.16 µM, first compound 3.16 µM) 33.8% | viability, T/C (second compound 3.16 µM, first compound 10 µM) 37.6% | viability, T/C [11] 78.2% | viability, T/C (second compound 10 µM, first compound 0.1 µM) 73.1% | viability, T/C [12] 66.7% | viability, T/C (second compound 10 µM, first compound 1 µM) 47% | viability, T/C (second compound 10 µM, first compound 3.16 µM) 20.9% | viability, T/C (second compound 10 µM, first compound 10 µM) 18.3%
789 nM: IC50 (second compound 10 µM)

Cc1[nH]c2ccccc2c1CCNCc1ccc(/C=C/C(=O)NO)cc1 + CN(C)c1ccc(Nc2c3ccc(NC(=O)CCN4CCCC4)cc3nc3cc(NC(=O)CCN4CCCC4)ccc23)cc1
133 nM: IC50 (second compound 10 µM)
231 nM: IC50 (second compound 0.316 µM)
190 nM: IC50 (second compound 3.16 µM)
202 nM: IC50 (second compound 1 µM)
253 nM: IC50 (second compound 0.0316 µM)
inactive: viability, T/C (second compound 0.0316 µM, first compound 0.000999 µM) 103% | viability, T/C (second compound 0.0316 µM, first compound 0.00316 µM) 98% | viability, T/C (second compound 0.0316 µM, first compound 0.00999 µM) 96.5% | viability, T/C [1] 102% | viability, T/C (second compound 0.0316 µM, first compound 0.0999 µM) 85.4% | viability, T/C [2] 41.5% | viability, T/C (second compound 0.1 µM, first compound 0.000999 µM) 97.8% | viability, T/C (second compound 0.1 µM, first compound 0.00316 µM) 97.1% | viability, T/C (second compound 0.1 µM, first compound 0.00999 µM) 96.6% | viability, T/C [3] 90.7% | viability, T/C (second compound 0.1 µM, first compound 0.0999 µM) 87.6% | viability, T/C [4] 37.4% | viability, T/C (second compound 0.316 µM, first compound 0.000999 µM) 91.2% | viability, T/C (second compound 0.316 µM, first compound 0.00316 µM) 96.8% | viability, T/C (second compound 0.316 µM, first compound 0.00999 µM) 88.8% | viability, T/C [5] 91.1% | viability, T/C (second compound 0.316 µM, first compound 0.0999 µM) 89.8% | viability, T/C [6] 35.1% | viability, T/C (second compound 1 µM, first compound 0.000999 µM) 90.9% | viability, T/C (second compound 1 µM, first compound 0.00316 µM) 88.5% | viability, T/C (second compound 1 µM, first compound 0.00999 µM) 84.3% | viability, T/C [7] 85.5% | viability, T/C (second compound 1 µM, first compound 0.0999 µM) 81.7% | viability, T/C [8] 29.6% | viability, T/C (second compound 3.16 µM, first compound 0.000999 µM) 81.6% | viability, T/C (second compound 3.16 µM, first compound 0.00316 µM) 88.5% | viability, T/C (second compound 3.16 µM, first compound 0.00999 µM) 86.5% | viability, T/C [9] 84.5% | viability, T/C (second compound 3.16 µM, first compound 0.0999 µM) 72.5% | viability, T/C [10] 32.1% | viability, T/C (second compound 10 µM, first compound 0.000999 µM) 90% | viability, T/C (second compound 10 µM, first compound 0.00316 µM) 84.7% | viability, T/C (second compound 10 µM, first compound 0.00999 µM) 82.6% | viability, T/C [11] 84.3% | viability, T/C (second compound 10 µM, first compound 0.0999 µM) 58% | viability, T/C [12] 25.9%
237 nM: IC50 (second compound 0.1 µM)
